Data as given in ChEMBL document CHEMBL3758169, “4-Aminoindazolyl-dihydrofuro[3,4-d]pyrimidines as non-covalent inhibitors of mutant epidermal growth factor receptor tyrosine kinase” (Bioorg Med Chem Lett, 2016).
In brackets after ≈: the same amount, converted by molar mass. Each block holds one compound with its values, some of them ahead of it.

Tests used:
[1] = target: T1, Epidermal growth factor receptor (Homo sapiens, UniProt P00533, L858R/T790M); assay: Inhibition of EGFR T790M/L858R mutant (unknown origin); format: protein assay
[2] = Drug excretion in iv dosed rat bile assessed as glucuronide metabolite; format: ADME, organism-based; conditions: in vivo
[3] = target: Tyrosine-protein kinase Lck (Homo sapiens) (UniProt P06239); assay: Inhibition of LCK (unknown origin) at 1000 Nm
[4] = target: CDK2/Cyclin A2 (Homo sapiens) (UniProt P24941+P20248); assay: Inhibition of CDK2/cyclinA (unknown origin) at 1000 nM; format: protein-complex assay
[5] = target: Ribosomal protein S6 kinase beta-1 (Homo sapiens) (UniProt P23443); assay: Inhibition of p70S6K(unknown origin) at 1000 nM
[6] = test system: Rattus norvegicus; assay: Unbound AUC in rat at 5 mg/kg, po; format: ADME, organism-based; conditions: in vivo
[7] = target: Vascular endothelial growth factor receptor 2 (Homo sapiens) (UniProt P35968); assay: Inhibition of KDR (unknown origin) at 1000 nM
[8] = Apparent permeability from the apical to basolateral side in MDCK cells; format: ADME, cell-based, Canis lupus familiaris; conditions: dog
[9] = target: Receptor tyrosine-protein kinase erbB-2 (Homo sapiens) (UniProt P04626); assay: Inhibition of ERBB2 (unknown origin) at 1000 nM
[10] = target: Receptor tyrosine-protein kinase erbB-4 (Homo sapiens) (UniProt Q15303); assay: Inhibition of ERBB4 (unknown origin) at 1000 nM
[11] = target: Receptor-type tyrosine-protein kinase FLT3 (Homo sapiens) (UniProt P36888); assay: Inhibition of FLT3 (unknown origin) at 1000 nM
[12] = Plasma clearance in iv dosed rat; format: ADME, organism-based
[13] = Drug excretion in iv dosed rat urine assessed as oxidative metabolite; format: ADME, organism-based; conditions: in vivo
[14] = test system: RAF proto-oncogene serine/threonine-protein kinase (Homo sapiens), P04049 [Y340D,Y341D]; assay: Inhibition of RAF1 Y340D/Y341D double mutant (unknown origin) at 1000 nM
[15] = Volume of distribution at steady state in rat; format: ADME, organism-based; conditions: in vivo, read-out: Vdss
[16] = Kinetic solubility of compound; format: physicochemical; conditions: read-out: Kinetic_solubility
[17] = target: T1, Epidermal growth factor receptor; assay: Inhibition of EGFR T790M/L858R mutant autophosphorylation in human H1975 cells; format: cell-based
[18] = target: Serine/threonine-protein kinase Chk1 (Homo sapiens) (UniProt O14757); assay: Inhibition of CHK1 (unknown origin) at 1000 nM
[19] = target: Epidermal growth factor receptor (Homo sapiens, UniProt P00533, L858R); assay: Inhibition of EGFR L858R mutant (unknown origin); format: protein assay
[20] = target: T2, Epidermal growth factor receptor (Homo sapiens, UniProt P00533); assay: Inhibition of EGFR deletion (746 to 750 residues) mutant (unknown origin); format: protein assay
Target sequence in this assay (P00533 25-1210 limits assumed, stated change not applied): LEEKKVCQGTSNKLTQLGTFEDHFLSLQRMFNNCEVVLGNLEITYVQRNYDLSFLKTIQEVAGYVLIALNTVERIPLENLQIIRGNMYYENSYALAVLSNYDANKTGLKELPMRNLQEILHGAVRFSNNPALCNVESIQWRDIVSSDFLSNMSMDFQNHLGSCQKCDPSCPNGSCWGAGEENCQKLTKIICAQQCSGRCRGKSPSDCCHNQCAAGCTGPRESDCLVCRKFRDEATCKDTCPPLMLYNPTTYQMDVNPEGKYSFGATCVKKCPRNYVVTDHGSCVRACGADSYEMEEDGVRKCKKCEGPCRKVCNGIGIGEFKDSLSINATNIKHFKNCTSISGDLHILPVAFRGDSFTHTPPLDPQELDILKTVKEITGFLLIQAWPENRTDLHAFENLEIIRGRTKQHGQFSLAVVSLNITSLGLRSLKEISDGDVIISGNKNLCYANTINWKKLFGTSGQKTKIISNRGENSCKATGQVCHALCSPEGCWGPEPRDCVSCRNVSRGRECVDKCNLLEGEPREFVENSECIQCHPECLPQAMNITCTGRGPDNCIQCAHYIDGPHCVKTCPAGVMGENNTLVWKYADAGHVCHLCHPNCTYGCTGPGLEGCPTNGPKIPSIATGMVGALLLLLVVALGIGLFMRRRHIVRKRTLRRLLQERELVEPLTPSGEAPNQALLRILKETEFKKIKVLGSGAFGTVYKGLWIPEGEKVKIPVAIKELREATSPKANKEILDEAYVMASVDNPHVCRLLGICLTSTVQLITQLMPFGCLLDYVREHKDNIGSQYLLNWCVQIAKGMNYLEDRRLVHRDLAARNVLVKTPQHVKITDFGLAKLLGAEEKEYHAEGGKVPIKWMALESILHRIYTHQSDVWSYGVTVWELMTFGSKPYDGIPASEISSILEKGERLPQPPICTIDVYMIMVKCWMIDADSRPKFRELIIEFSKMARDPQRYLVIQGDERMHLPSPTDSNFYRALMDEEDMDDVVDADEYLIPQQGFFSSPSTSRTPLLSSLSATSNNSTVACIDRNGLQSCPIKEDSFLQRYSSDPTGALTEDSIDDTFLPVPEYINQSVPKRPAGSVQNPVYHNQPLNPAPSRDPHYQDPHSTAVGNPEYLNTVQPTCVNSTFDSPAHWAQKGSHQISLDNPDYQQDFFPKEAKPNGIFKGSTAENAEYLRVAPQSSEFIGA

[21] = Total AUC in rat at 5 mg/kg, po; format: ADME, organism-based; parameters: dose 5 mg/kg, time AUCmax, route oral; conditions: in vivo
[22] = Oral bioavailability in rat at 5 mg/kg; format: ADME, organism-based; conditions: in vivo
[23] = target: Dual specificity mitogen-activated protein kinase kinase 1 (Homo sapiens) (UniProt Q02750); assay: Inhibition of MEK1 (unknown origin) at 1000 nM
[24] = Drug excretion in iv dosed rat urine assessed as glucuronide metabolite; format: ADME, organism-based; conditions: in vivo
[25] = target: T3, Inhibitor of nuclear factor kappa-B kinase subunit epsilon (Homo sapiens) (UniProt Q14164); assay: Inhibition of IKKepsilon (unknown origin) at 1000 nM
T3 sequence (whole entry): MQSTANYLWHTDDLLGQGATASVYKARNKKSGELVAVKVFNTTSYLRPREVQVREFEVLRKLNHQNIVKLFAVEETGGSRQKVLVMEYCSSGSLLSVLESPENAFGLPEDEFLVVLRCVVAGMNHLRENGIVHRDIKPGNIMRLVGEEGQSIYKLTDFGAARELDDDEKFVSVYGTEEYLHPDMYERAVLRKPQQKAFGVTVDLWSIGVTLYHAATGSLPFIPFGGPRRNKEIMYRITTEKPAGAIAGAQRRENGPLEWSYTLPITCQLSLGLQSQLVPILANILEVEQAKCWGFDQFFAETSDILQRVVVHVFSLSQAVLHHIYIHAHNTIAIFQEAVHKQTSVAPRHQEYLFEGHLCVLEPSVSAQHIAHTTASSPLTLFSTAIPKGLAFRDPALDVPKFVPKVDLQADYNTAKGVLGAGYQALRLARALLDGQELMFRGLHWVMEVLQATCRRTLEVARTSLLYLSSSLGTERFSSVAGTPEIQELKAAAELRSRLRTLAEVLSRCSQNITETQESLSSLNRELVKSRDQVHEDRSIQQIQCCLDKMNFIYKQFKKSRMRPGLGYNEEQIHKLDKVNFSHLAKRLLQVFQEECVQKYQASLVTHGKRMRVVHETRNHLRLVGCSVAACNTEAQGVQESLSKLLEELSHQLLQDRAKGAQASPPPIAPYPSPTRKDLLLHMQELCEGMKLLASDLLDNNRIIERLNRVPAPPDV

[26] = target: T2, Epidermal growth factor receptor; assay: Inhibition of wild type EGFR (unknown origin)
Target sequence in this assay (P00533 whole entry, the tested form may be a part): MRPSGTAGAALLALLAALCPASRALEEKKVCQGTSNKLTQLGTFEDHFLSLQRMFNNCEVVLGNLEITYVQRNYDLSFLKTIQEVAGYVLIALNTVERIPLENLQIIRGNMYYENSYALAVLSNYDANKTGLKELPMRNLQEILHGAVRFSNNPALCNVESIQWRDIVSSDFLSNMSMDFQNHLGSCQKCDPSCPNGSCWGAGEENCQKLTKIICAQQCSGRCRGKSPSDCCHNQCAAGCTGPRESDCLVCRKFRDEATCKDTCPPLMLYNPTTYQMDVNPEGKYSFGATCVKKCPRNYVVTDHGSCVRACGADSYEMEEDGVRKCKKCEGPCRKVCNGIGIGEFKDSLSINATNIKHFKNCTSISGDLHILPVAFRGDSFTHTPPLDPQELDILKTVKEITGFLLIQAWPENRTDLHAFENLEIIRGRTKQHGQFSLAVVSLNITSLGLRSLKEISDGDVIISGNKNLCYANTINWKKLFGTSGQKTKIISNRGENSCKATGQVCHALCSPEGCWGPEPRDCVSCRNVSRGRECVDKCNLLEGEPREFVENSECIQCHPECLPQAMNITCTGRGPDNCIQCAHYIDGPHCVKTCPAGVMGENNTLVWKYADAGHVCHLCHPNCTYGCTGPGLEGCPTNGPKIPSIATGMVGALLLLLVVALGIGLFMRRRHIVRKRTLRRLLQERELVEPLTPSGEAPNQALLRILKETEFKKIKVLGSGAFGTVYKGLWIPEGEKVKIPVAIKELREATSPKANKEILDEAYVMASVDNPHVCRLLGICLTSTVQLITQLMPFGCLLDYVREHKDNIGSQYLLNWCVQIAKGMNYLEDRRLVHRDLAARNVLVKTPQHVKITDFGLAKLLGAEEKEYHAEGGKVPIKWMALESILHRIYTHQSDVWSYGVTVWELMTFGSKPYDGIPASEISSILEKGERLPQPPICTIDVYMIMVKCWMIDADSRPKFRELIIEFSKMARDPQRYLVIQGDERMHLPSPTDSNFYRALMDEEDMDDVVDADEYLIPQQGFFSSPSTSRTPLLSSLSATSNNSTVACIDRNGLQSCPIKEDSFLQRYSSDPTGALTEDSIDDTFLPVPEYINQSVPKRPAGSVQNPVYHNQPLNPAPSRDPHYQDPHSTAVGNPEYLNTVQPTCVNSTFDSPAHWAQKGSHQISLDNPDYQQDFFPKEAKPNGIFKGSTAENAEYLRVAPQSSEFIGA

[27] = target: Aurora kinase B (Homo sapiens) (UniProt Q96GD4); assay: Inhibition of Aurora B (unknown origin) at 1000 nM
[28] = target: Mitogen-activated protein kinase 1 (Homo sapiens) (UniProt P28482); assay: Inhibition of ERK2 (unknown origin) at 1000 nM
[29] = target: Tyrosine-protein kinase JAK2 (Homo sapiens) (UniProt O60674); assay: Inhibition of JAK2 (unknown origin) at 1000 nM
[30] = Drug excretion in iv dosed rat bile assessed as oxidative metabolite; format: ADME, organism-based; conditions: in vivo
[31] = target: High affinity nerve growth factor receptor (Homo sapiens) (UniProt P04629); assay: Inhibition of TRKA (unknown origin) at 1000 nM
[32] = target: Proto-oncogene tyrosine-protein kinase Src (Homo sapiens) (UniProt P12931); assay: Inhibition of SRC (unknown origin) at 1000 nM
[33] = test system: Epidermal growth factor receptor (Homo sapiens), P00533 [L858R,T790M]; assay: Inhibition of EGFR T790M/L858R double mutant (unknown origin) at 1000 nM; format: protein assay
[34] = target: T2, Epidermal growth factor receptor; assay: Inhibition of EGFR T790M/deletion (746 to 750 residues) mutant (unknown origin); format: protein assay
Target sequence in this assay (P00533 25-1210 limits assumed, stated change not applied): as the sequence (P00533 25-1210 limits assumed, stated change not applied) above

[35] = Efflux ratio of permeability from basolateral to apical side over apical to basolateral side in MDCK cells; format: ADME, cell-based, Canis lupus familiaris; conditions: dog
[36] = test system: Hepatocyte; assay: Drug metabolism in rat hepatocytes assessed as glucuronidation; format: ADME, cell-based
[37] = test system: Hepatocyte; assay: Drug metabolism in human hepatocytes assessed as glucuronidation; format: ADME, cell-based

T1 sequence (P00533 25-1210 T790M/L858R limits assumed): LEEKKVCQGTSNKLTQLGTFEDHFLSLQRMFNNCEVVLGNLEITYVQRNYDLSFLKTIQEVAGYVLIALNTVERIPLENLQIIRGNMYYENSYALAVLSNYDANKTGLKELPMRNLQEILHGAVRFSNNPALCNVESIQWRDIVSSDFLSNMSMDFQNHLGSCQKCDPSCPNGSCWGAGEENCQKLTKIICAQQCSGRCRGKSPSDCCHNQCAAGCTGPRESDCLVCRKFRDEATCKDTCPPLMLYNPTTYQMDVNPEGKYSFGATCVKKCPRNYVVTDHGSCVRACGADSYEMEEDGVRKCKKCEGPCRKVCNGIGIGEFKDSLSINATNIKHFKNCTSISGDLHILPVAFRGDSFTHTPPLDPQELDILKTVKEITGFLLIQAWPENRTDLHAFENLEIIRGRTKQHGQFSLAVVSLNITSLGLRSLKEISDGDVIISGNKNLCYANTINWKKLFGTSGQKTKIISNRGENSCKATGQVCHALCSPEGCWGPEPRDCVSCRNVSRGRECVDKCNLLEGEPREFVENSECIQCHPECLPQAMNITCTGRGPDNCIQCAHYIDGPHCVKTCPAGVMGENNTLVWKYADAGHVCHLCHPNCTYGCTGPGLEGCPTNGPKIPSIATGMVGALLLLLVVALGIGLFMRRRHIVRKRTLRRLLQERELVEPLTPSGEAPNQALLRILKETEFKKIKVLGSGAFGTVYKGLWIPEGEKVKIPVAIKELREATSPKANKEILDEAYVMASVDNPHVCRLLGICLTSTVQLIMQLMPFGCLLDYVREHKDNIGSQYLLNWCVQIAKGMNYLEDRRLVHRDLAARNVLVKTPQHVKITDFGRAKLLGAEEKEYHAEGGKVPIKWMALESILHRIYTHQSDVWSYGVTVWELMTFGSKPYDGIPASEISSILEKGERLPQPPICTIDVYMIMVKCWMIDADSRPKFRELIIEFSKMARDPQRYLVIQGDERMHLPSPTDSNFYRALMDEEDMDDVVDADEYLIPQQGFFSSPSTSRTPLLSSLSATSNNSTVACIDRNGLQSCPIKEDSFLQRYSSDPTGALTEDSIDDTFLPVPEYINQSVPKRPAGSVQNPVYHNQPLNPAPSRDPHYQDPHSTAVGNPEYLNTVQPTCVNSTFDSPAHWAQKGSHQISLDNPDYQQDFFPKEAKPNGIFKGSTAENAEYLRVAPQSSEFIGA
Chain of Epidermal growth factor receptor (Homo sapiens, UniProt P00533, L858R) (P00533 25-1210 L858R limits assumed): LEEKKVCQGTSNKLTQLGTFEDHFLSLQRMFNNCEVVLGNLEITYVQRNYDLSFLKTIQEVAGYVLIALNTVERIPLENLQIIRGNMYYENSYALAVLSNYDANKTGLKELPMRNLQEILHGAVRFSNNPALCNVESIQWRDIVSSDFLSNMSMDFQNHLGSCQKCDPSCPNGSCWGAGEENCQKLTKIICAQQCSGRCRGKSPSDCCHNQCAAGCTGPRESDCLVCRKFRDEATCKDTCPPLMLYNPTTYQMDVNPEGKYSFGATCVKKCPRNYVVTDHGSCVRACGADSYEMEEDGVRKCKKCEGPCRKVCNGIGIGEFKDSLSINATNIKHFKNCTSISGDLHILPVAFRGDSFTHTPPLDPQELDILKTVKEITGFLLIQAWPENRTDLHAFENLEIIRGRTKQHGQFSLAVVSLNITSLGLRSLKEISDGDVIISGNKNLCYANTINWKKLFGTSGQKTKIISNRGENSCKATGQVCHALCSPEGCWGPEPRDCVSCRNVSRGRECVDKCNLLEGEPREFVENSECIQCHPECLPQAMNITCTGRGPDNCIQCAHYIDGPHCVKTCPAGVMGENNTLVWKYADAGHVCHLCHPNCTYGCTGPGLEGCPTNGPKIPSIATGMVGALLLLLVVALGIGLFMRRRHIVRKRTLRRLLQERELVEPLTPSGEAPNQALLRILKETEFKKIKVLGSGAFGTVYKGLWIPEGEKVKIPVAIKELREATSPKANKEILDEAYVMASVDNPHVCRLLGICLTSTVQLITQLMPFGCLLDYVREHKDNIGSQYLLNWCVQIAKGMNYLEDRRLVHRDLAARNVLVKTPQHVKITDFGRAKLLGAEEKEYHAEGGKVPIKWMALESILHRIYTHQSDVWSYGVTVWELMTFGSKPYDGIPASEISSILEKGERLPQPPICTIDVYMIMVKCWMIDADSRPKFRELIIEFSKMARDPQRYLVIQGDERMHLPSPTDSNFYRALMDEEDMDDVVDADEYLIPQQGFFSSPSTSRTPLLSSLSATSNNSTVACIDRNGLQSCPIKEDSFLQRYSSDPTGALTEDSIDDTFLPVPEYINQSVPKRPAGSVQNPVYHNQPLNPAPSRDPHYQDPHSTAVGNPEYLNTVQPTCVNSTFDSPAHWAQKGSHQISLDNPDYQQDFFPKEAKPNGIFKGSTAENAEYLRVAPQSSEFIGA

Structure (SMILES): CC1(C)OCc2c(Nc3n[nH]c4c(Cl)cccc34)nc(-c3cn[nH]c3C(F)F)nc21
- Drug excretion [2]: metabolite_detected
- inhibition [3]: 85.7%
- inhibition [4]: -4%
- inhibition [5]: 2.7%
- fAUC [6]: 0.09 µM·h
- inhibition [7]: 96.4%
- Papp A→B [8]: 8.4 ×10⁻⁶ cm/s
- inhibition [9]: 91.8%
- inhibition [10]: 97%
- inhibition [11]: 38.1%
- clearance [12]: 36 mL/min/kg
- Drug excretion [13]: metabolite_detected
- inhibition [14]: 38.4%
- Vd [15]: 3.3 L/kg
- solubility kinetic [16]: 3 µM (≈ 1.3 µg/mL)
- IC50 [17]: 370 nM
- inhibition [18]: 6.9%
- Ki [19]: 3.4 nM
- Ki [20]: 1.7 nM
- AUC [21]: 3.4 µM·h
- Ki [1]: 9 nM
- bioavailability [22]: 62%
- inhibition [23]: -4.5%
- Drug excretion [24]: metabolite_detected
- inhibition [25]: 1.9%
- Ki [26]: 6.5 nM
- inhibition [27]: -7%
- inhibition [28]: 4.5%
- inhibition [29]: 10.1%
- Drug excretion [30]: metabolite_detected
- inhibition [31]: 15.3%
- inhibition [32]: 47.6%
- inhibition [33]: 90.8%
- Ki [34]: 2.5 nM
- efflux ratio [35]: 0.7

Structure (SMILES): CN(c1nc(-c2cn[nH]c2)nc2c1COC2(C)C)c1n[nH]c2ccccc12
- Ki [1]: 519 nM

Structure (SMILES): CC1(C)OCc2c(Nc3n[nH]c(Cl)c3Cl)nc(-c3cn[nH]c3)nc21
- Ki [1]: 389 nM

Structure (SMILES): CC1(C)OCc2c(Nc3n[nH]c4c(F)cc(F)cc34)nc(-c3cn[nH]c3)nc21
- Ki [1]: 10.4 nM

Structure (SMILES): CC1(C)OCc2c(Nc3n[nH]c4c(Cl)cc(F)cc34)nc(-c3cn[nH]c3)nc21
- Ki [1]: 16 nM

Structure (SMILES): CC1(C)OCc2c(Nc3n[nH]c4c3CCCC4)nc(-c3cn[nH]c3)nc21
- Ki [1]: > 2000 nM

Structure (SMILES): Cc1cc(Nc2nc(-c3cn[nH]c3)nc3c2COC3(C)C)n[nH]1
- Ki [1]: 844 nM

Structure (SMILES): CC1(C)OCc2c(C(=O)c3n[nH]c4ccccc34)nc(-c3cn[nH]c3)nc21
- Ki [1]: 104 nM

Structure (SMILES): CC1(C)OCc2c(Nc3n[nH]c4c(Cl)c(F)ccc34)nc(-c3cn[nH]c3)nc21
- Papp A→B [8]: 7.3 ×10⁻⁶ cm/s
- clearance [12]: 60 mL/min/kg
- Vd [15]: 5.5 L/kg
- Ki [1]: 4 nM
- efflux ratio [35]: 1.1

Structure (SMILES): CC1(C)OCc2c(Nc3nc4ccccc4s3)nc(-c3cn[nH]c3)nc21
- Ki [1]: > 2000 nM

Structure (SMILES): Cn1nc(Nc2nc(-c3cn[nH]c3)nc3c2COC3(C)C)c2cccc(F)c21
- clearance [12]: 60 mL/min/kg
- Vd [15]: 1.5 L/kg
- Ki [1]: 57 nM

The remaining lines, values ahead:

- Ki [1]: 17 nM
Structure (SMILES): CC1(C)OCc2c(Nc3n[nH]c4cccc(F)c34)nc(-c3cn[nH]c3)nc21

- Ki [1]: 85 nM
Structure (SMILES): CC1(C)OCc2c(Oc3n[nH]c4ccccc34)nc(-c3cn[nH]c3)nc21

- Ki [1]: 17 nM
Structure (SMILES): CC1(C)OCc2c(Nc3c[nH]c4ccccc34)nc(-c3cn[nH]c3)nc21

- Ki [1]: 3 nM
Structure (SMILES): CC1(C)OCc2c(Nc3n[nH]c4c(F)cccc34)nc(-c3cn[nH]c3)nc21

- fAUC [6]: 0.03 µM·h
- Papp A→B [8]: 8.5 ×10⁻⁶ cm/s
- Drug metabolism [36]: metabolite_detected
- clearance [12]: 27 mL/min/kg
- Vd [15]: 2.4 L/kg
- solubility kinetic [16]: 3 µM (≈ 1.25 µg/mL)
- AUC [21]: 0.36 µM·h
- Ki [1]: 134 nM
- bioavailability [22]: 5%
- Drug metabolism [37]: metabolite_detected
- efflux ratio [35]: 1.3
Structure (SMILES): CC1(C)OCc2c(Nc3n[nH]c4c(C(F)(F)F)cccc34)nc(-c3cn[nH]c3)nc21

- Ki [1]: 5.6 nM
Structure (SMILES): CC1(C)OCc2c(Nc3n[nH]c4ccccc34)nc(-c3cscn3)nc21

- Ki [1]: 2 nM
Structure (SMILES): CC1(C)OCc2c(Nc3n[nH]c4cc(F)ccc34)nc(-c3cn[nH]c3)nc21

- Papp A→B [8]: 10.3 ×10⁻⁶ cm/s
- clearance [12]: 91 mL/min/kg
- Vd [15]: 1.2 L/kg
- Ki [1]: > 2000 nM
- efflux ratio [35]: 1.5
Structure (SMILES): CC1(C)OCc2c(Nc3n[nH]c4cc(C(F)(F)F)ccc34)nc(-c3cn[nH]c3)nc21

- Drug metabolism [36]: metabolite_detected
- clearance [12]: 81 mL/min/kg
- Vd [15]: 6.8 L/kg
- Ki [1]: 8 nM
- Drug metabolism [37]: metabolite_detected
Structure (SMILES): CC1(C)OCc2c(Nc3n[nH]c4ccc(F)cc34)nc(-c3cn[nH]c3)nc21

- Ki [1]: 732 nM
Structure (SMILES): CC1(C)OCc2c(Nc3n[nH]c4ccccc34)nc(-c3c[nH]nn3)nc21

- Ki [1]: > 2000 nM
Structure (SMILES): CC1(C)OCc2c(Nc3n[nH]c4ccncc34)nc(-c3cn[nH]c3)nc21

- Ki [1]: 22.4 nM
Structure (SMILES): CC1(C)OCc2c(Nc3n[nH]c4cc(Cl)ccc34)nc(-c3cn[nH]c3)nc21

- Ki [1]: 747 nM
Structure (SMILES): CC1(C)OCc2c(Nc3nsc4ccccc34)nc(-c3cn[nH]c3)nc21

- fAUC [6]: 0.23 µM·h
- Papp A→B [8]: 12.9 ×10⁻⁶ cm/s
- clearance [12]: 38 mL/min/kg
- Vd [15]: 2.3 L/kg
- IC50 [17]: 3000 nM
- Ki [19]: < 0.5 nM
- Ki [20]: < 0.5 nM
- AUC [21]: 7.5 µM·h
- Ki [1]: 34.3 nM
- bioavailability [22]: 117%
- Ki [26]: 1.1 nM
- Ki [34]: 21.3 nM
- efflux ratio [35]: 0.9
Structure (SMILES): Cn1nccc1-c1nc(Nc2n[nH]c3ccccc23)c2c(n1)C(C)(C)OC2

- Ki [1]: 175 nM
Structure (SMILES): CC1(C)OCc2c(Nc3n[nH]c4ccccc34)nc(-c3cc[nH]n3)nc21
